# Experimental data published in ChEMBL document CHEMBL1201862, “PubChem BioAssay data set” (2004).
# “And” between values parts separate entries of the source, which are not always exact repeats. Identical values can stand only once.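 Five concentrations, 48 hours, 96-well plates. Abbreviation: GI50, concentration required for 50% inhibition of growth.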 The source made the active and inactive calls. Cut-off read from the data, not from the text of the source: active = GI50 up to about 1.1 µM and inactive = higher.
# Key:
# Assay in all cases: growth of human tumour cells (NCI), 48 h
# [1] = system: CAKI-1
# [2] = system: HOP-92
# [3] = system: OVCAR-4
# [4] = system: 786-0
# [5] = system: A498
# [6] = system: A549
# [7] = system: ACHN
# [8] = system: CCRF-CEM
# [9] = system: DU-145
# [10] = system: EKVX
# [11] = system: HCT-116
# [12] = system: HCT-15
# [13] = system: HL-60
# [14] = system: HOP-62
# [15] = system: HT-29
# [16] = system: Hs-578T
# [17] = system: IGROV-1
# [18] = system: K562
# [19] = system: KM12
# [20] = system: LOX IMVI
# [21] = system: M14
# [22] = system: MCF7
# [23] = system: MDA-MB-231
# [24] = system: MDA-MB-435
# [25] = system: MDA-N
# [26] = system: MOLT-4
# [27] = system: OVCAR-5
# [28] = system: OVCAR-8
# [29] = system: PC-3
# [30] = system: RPMI-8226
# [31] = system: SF-268
# [32] = system: SK-MEL-28
# [33] = system: SK-MEL-2
# [34] = system: SK-MEL-5
# [35] = system: SK-OV-3
# [36] = system: SN12C
# [37] = system: SNB-19
# [38] = system: SNB-75
# [39] = system: SR
# [40] = system: SW-620
# [41] = system: TK-10
# [42] = system: U-251
# [43] = system: UACC-257
# [44] = system: UACC-62
# [45] = system: COLO 205
# [46] = system: HCC 2998
# [47] = system: Malme-3M
# [48] = system: NCI-H226
# [49] = system: RXF 393
# [50] = system: UO-31
# [51] = system: BT-549
# [52] = system: NCI-H23
# [53] = system: NCI-H522
# [54] = system: NCI/ADR-RES
# [55] = system: OVCAR-3
# [56] = system: SF-295
# [57] = system: SF-539
compound,measurement,setting,value
CC(=O)OCC1OC(n2c(=S)n(-c3ccccc3)c(=O)c3ccccc32)C(OC(C)=O)C(OC(C)=O)C1OC(C)=O (configuration not stated),GI50,[1],91.8 µM (inactive) and 83.4 µM (inactive)
same,GI50,[2],47.8 µM (inactive) and 33.6 µM (inactive)
same,GI50,[3],55.8 µM (inactive) and 48.1 µM (inactive)
CCCCCCCCCCCCCCCCCc1nc(C#N)c(N)o1,GI50,[4],23.3 µM (inactive)
same,GI50,[5],> 100 µM (inactive)
same,GI50,[6],> 100 µM (inactive)
same,GI50,[7],96.6 µM (inactive)
same,GI50,[1],19.9 µM (inactive)
same,GI50,[8],2.28 µM (inactive)
same,GI50,[9],> 100 µM (inactive)
same,GI50,[10],> 100 µM (inactive)
same,GI50,[11],> 100 µM (inactive)
same,GI50,[12],86.9 µM
same,GI50,[13],3.53 µM (inactive)
same,GI50,[14],> 100 µM (inactive)
same,GI50,[2],74.5 µM (inactive)
same,GI50,[15],> 100 µM (inactive)
same,GI50,[16],20.8 µM (inactive)
same,GI50,[17],12.1 µM (inactive)
same,GI50,[18],22.7 µM (inactive)
same,GI50,[19],23.5 µM (inactive)
same,GI50,[20],54.3 µM (inactive)
same,GI50,[21],98.6 µM (inactive)
same,GI50,[22],> 100 µM (inactive)
same,GI50,[23],21 µM (inactive)
same,GI50,[24],> 100 µM (inactive)
same,GI50,[25],> 100 µM (inactive)
same,GI50,[26],5.06 µM (inactive)
same,GI50,[27],73.1 µM (inactive)
same,GI50,[28],13.8 µM (inactive)
same,GI50,[29],24.4 µM (inactive)
same,GI50,[30],5.27 µM (inactive)
same,GI50,[31],33.2 µM (inactive)
same,GI50,[32],> 100 µM (inactive)
same,GI50,[33],> 100 µM (inactive)
same,GI50,[34],> 100 µM (inactive)
same,GI50,[35],> 100 µM (inactive)
same,GI50,[36],61 µM (inactive)
same,GI50,[37],73.8 µM (inactive)
same,GI50,[38],21.4 µM (inactive)
same,GI50,[39],7.89 µM (inactive)
same,GI50,[40],> 100 µM (inactive)
same,GI50,[41],> 100 µM (inactive)
same,GI50,[42],44.2 µM (inactive)
same,GI50,[43],> 100 µM (inactive)
same,GI50,[44],> 100 µM (inactive)
Nc1nc(N)c2ncn(-c3ccccc3)c2n1,GI50,[4],> 100 µM (inactive)
same,GI50,[5],60.4 µM (inactive)
same,GI50,[6],43.6 µM (inactive)
same,GI50,[1],66.2 µM (inactive)
same,GI50,[8],24.9 µM (inactive)
same,GI50,[45],> 100 µM (inactive)
same,GI50,[46],56.1 µM (inactive)
same,GI50,[14],> 100 µM (inactive)
same,GI50,[16],71 µM (inactive)
same,GI50,[17],47.2 µM (inactive)
same,GI50,[19],26.4 µM (inactive)
same,GI50,[20],> 100 µM (inactive)
same,GI50,[22],69.7 µM (inactive)
same,GI50,[23],64.9 µM (inactive)
same,GI50,[25],> 100 µM (inactive)
same,GI50,[26],38.7 µM (inactive)
same,GI50,[47],> 100 µM (inactive)
same,GI50,[48],> 100 µM (inactive)
same,GI50,[30],> 100 µM (inactive)
same,GI50,[49],44.3 µM (inactive)
same,GI50,[33],73.3 µM (inactive)
same,GI50,[34],> 100 µM (inactive)
same,GI50,[36],93.3 µM (inactive)
same,GI50,[37],> 100 µM (inactive)
same,GI50,[40],> 100 µM (inactive)
same,GI50,[41],54.2 µM (inactive)
same,GI50,[42],> 100 µM (inactive)
same,GI50,[43],> 100 µM (inactive)
same,GI50,[44],41.5 µM (inactive)
same,GI50,[50],36.9 µM (inactive)
CCc1nnc(CC)n1NCCCC(=O)O,GI50,[4],> 100 µM (inactive)
same,GI50,[6],> 100 µM (inactive)
same,GI50,[7],> 100 µM (inactive)
same,GI50,[51],> 100 µM (inactive)
same,GI50,[8],> 100 µM (inactive)
same,GI50,[45],> 100 µM (inactive)
same,GI50,[9],> 100 µM (inactive)
same,GI50,[10],> 100 µM (inactive)
same,GI50,[46],> 100 µM (inactive)
same,GI50,[11],> 100 µM (inactive)
same,GI50,[12],> 100 µM
same,GI50,[14],> 100 µM (inactive)
same,GI50,[2],> 100 µM (inactive)
same,GI50,[15],> 100 µM (inactive)
same,GI50,[17],> 100 µM (inactive)
same,GI50,[18],> 100 µM (inactive)
same,GI50,[19],> 100 µM (inactive)
same,GI50,[20],> 100 µM (inactive)
same,GI50,[21],> 100 µM (inactive)
same,GI50,[22],> 100 µM (inactive)
same,GI50,[23],> 100 µM (inactive)
same,GI50,[24],> 100 µM (inactive)
same,GI50,[25],> 100 µM (inactive)
same,GI50,[26],> 100 µM (inactive)
same,GI50,[52],> 100 µM (inactive)
same,GI50,[53],> 100 µM (inactive)
same,GI50,[54],> 100 µM (inactive)
same,GI50,[55],> 100 µM (inactive)
same,GI50,[3],> 100 µM (inactive)
same,GI50,[27],> 100 µM (inactive)
same,GI50,[28],> 100 µM (inactive)
same,GI50,[29],> 100 µM (inactive)
same,GI50,[30],> 100 µM (inactive)
same,GI50,[49],> 100 µM (inactive)
same,GI50,[31],> 100 µM (inactive)
same,GI50,[56],> 100 µM (inactive)
same,GI50,[57],> 100 µM (inactive)
same,GI50,[32],> 100 µM (inactive)
same,GI50,[33],> 100 µM (inactive)
same,GI50,[34],> 100 µM (inactive)
same,GI50,[35],> 100 µM (inactive)
same,GI50,[36],> 100 µM (inactive)
same,GI50,[37],> 100 µM (inactive)
same,GI50,[38],> 100 µM (inactive)
same,GI50,[39],> 100 µM (inactive)
same,GI50,[40],> 100 µM (inactive)
same,GI50,[41],> 100 µM (inactive)
same,GI50,[42],> 100 µM (inactive)
same,GI50,[43],> 100 µM (inactive)
same,GI50,[44],> 100 µM (inactive)
same,GI50,[50],> 100 µM (inactive)
